Experimental data published in patent US20220378706A1, “PHARMACEUTICAL COMPOSITION COMPRISING PDE9 INHIBITOR” (Eisai R&D Management Co., Ltd., priority 2017, published 2022).
Where two headings read alike, the source gives them in different places.

Assay: Single dose clinical study: plasma Compound A pharmacokinetics
Format: in vivo, human
Conditions: human, plasma, po, plasma
Procedure: This was a single center, single dose, randomized, double blind, placebo controlled study in healthy subjects. It consisted of 4 parts: Parts A, B, C, and D. Each of the four study parts had 2 phases: Prerandomization Phase and Randomization Phase. The Prerandomization Phase lasted up to 30 days and consisted of a Screening Period and a Baseline Period, during which each subject's study eligibility was determined and baseline assessments were performed.
In Part A, there were 8 sequential cohorts of healthy adult subjects (18-50 years of age). Subjects were randomly assigned to Compound A or placebo in a ratio of 6:2, respectively. Subjects in the Compound A cohorts were treated with single ascending doses of 10, 25, 50, 100, 200, 400, 800, or 1200 mg.
In Part B, there were 4 cohorts of healthy adult subjects (18-50 years of age). There were 8 subjects in Cohort 1, with 6 subjects randomly assigned to receive single doses of Compound A (400 mg) and 2 subjects randomly assigned to receive placebo. There were 7 subjects in Cohort 2 and Cohort 3, each with 6 subjects randomly assigned to receive single doses of Compound A (100 and 200 mg, respectively) and 1 subject randomly assigned to receive placebo. The dose of 100 mg selected in Cohort 2 was based on preliminary analysis of Cohort 1 data; this dose was predicted from PK/PD modeling to achieve a sustained CSF cGMP increase from baseline of approximately 200% when administered to steady state, and thereby provided a potentially therapeutic dose for further evaluation in future studies. There were 7 subjects in Cohort 4, with 6 subjects randomly assigned to receive a single dose of Compound A (50 mg [n=3] or 75 mg [n=3]) and 1 subject randomly assigned to receive placebo. The doses for Cohorts 3 and 4 were selected based on PK/PD modeling of the data in Cohorts 1 and 2.
Subjects in Cohort 2 who had received Compound A 100 mg or placebo under fasted conditions (1st Treatment Period) also participated in an evaluation of food effect on the PK of Compound A (2nd Treatment Period). After a washout period of at least 13 days (or 5 half-lives of Compound A, whichever was longer), subjects were admitted to the clinic for baseline assessments (2nd Baseline Period) and then received a single dose of the same treatment (Compound A 100 mg or placebo) after consuming a high fat and high calorie meal over 30 minutes. Blood PK samples were collected at prespecified time points. Safety evaluations were also assessed. CSF was not collected for PD evaluation during the 2nd Treatment Period. A Follow Up Visit occurred on Day 10 of Treatment Period 2.
In Part C, there was 1 cohort of 8 healthy elderly subjects (65 to 85 years of age) randomly assigned to receive a single dose of Compound A 100 mg or placebo in a ratio of 6:2, respectively.
In Part D, 3 cohorts of healthy adult Japanese subjects were randomized in parallel. There were 7 subjects in each cohort and subjects were randomly assigned to receive single doses of Compound A (25, 100, or 400 mg) or placebo in a ratio of 6:1, respectively.
Blood samples for determination of plasma Compound A concentrations were collected from predose to 216 hours postdose. On Day 1, blood PK samples were collected at predose and postdose 0.5 (30 minutes), 1, 1.5, 2, 3, 4, 5, 6, 8, 12, and 18 hours. Thereafter, samples were collected on Day 2 (24 and 36 hours postdose), Day 3 (48 hours postdose), Day 4 (72 hours postdose), Day 5 (96 hours postdose), Day 6 (120 hours postdose), Day 7 (144 hours postdose), and Day 10 (216 hours postdose).
Blood samples for determination of plasma Compound A concentrations were collected from predose to 216 hours postdose. For all cohorts, blood PK samples were collected on Day 1 at predose and postdose at 0.5 (30 minutes), 1, 1.5, 2, 3, 4, 5, 6, 8, 10, 12, and 18 hours. […]

SMILES: COc1ncc(C)c(-c2ccc3c(c2)[nH]c(=O)c2cnn([C@H]4CCOC4)c23)c1C [Compound A, (S)-7-(2-methoxy-3,5-dimethylpyridin-4-yl)-1-(tetrahydrofuran-3-yl)-1H-pyrazolo[4,3-c]quin olin-4(5H)-one]
- Cmax (100 mg, Japanese Subjects (Part D), single oral 100 mg, read-out: Cmax GM (% CV)): 0.492 µg/mL
- Vd/F (100 mg, Japanese Subjects (Part D), single oral 100 mg, read-out: Vz/F GM (% CV)): 240 L
- half-life (100 mg, Japanese Subjects (Part D), single oral 100 mg, read-out: t1/2 Mean (SD) (converted)): 23.9 h
- Tmax (100 mg, Japanese Subjects (Part D), single oral 100 mg, read-out: tmax Median): 2.52 h
- AUC(0-inf) (100 mg, Non-Japanese Subjects (Parts A,B), single oral 100 mg, read-out: AUC(0-inf) GM): 15 µg·h/mL
- Cmax (100 mg, Non-Japanese Subjects (Parts A,B), single oral 100 mg, read-out: Cmax GM (% CV)): 0.373 µg/mL
- Vd/F (100 mg, Non-Japanese Subjects (Parts A,B), single oral 100 mg, read-out: Vz/F GM (% CV)): 268 L
- half-life (100 mg, Non-Japanese Subjects (Parts A,B), single oral 100 mg, read-out: t1/2 Mean (SD) (converted)): 28.6 h
- Tmax (100 mg, Non-Japanese Subjects (Parts A,B), single oral 100 mg, read-out: tmax Median): 2.99 h
- AUC(0-t) (100 mg, Part B 100 mg cohort, single oral 100 mg, Fasted, read-out: AUC (0-24 h) GM (% CV)): 6.14 µg·h/mL
- AUC(0-t) (100 mg, Part B 100 mg cohort, single oral 100 mg, Fasted, read-out: AUC (0-30 h) GM (% CV)): 7.36 µg·h/mL
- AUC(0-t) (100 mg, Part B 100 mg cohort, single oral 100 mg, Fasted, read-out: AUC (0-72 h) GM (% CV)): 12.2 µg·h/mL
- AUC(0-inf) (100 mg, Part B 100 mg cohort, single oral 100 mg, Fasted, read-out: AUC (0-inf) GM (% CV)): 14.5 µg·h/mL
- AUC(0-t) (100 mg, Part B 100 mg cohort, single oral 100 mg, Fasted, read-out: AUC (0-t) GM (% CV)): 14.4 µg·h/mL
- Cmax (100 mg, Part B 100 mg cohort, single oral 100 mg, Fasted, read-out: Cmax GM (%CV)): 0.371 µg/mL
- Vd/F (100 mg, Part B 100 mg cohort, single oral 100 mg, Fasted, read-out: Vz/F GM (% CV)): 252 L
- half-life (100 mg, Part B 100 mg cohort, single oral 100 mg, Fasted, read-out: t1/2 Mean (SD) (converted)): 25.7 h
- Tmax (100 mg, Part B 100 mg cohort, single oral 100 mg, Fasted, read-out: tmax Median (Min, Max)): 2.99 h
- AUC(0-t) (100 mg, Part B 100 mg cohort, single oral 100 mg, Fed (high-fat meal), read-out: AUC (0-24 h) GM (% CV)): 7.61 µg·h/mL
- AUC(0-t) (100 mg, Part B 100 mg cohort, single oral 100 mg, Fed (high-fat meal), read-out: AUC (0-30 h) GM (% CV)): 8.98 µg·h/mL
- AUC(0-t) (100 mg, Part B 100 mg cohort, single oral 100 mg, Fed (high-fat meal), read-out: AUC (0-72 h) GM (% CV)): 14.5 µg·h/mL
- AUC(0-inf) (100 mg, Part B 100 mg cohort, single oral 100 mg, Fed (high-fat meal), read-out: AUC (0-inf) GM (% CV)): 17.3 µg·h/mL
- AUC(0-t) (100 mg, Part B 100 mg cohort, single oral 100 mg, Fed (high-fat meal), read-out: AUC (0-t) GM (% CV)): 17.1 µg·h/mL
- Cmax (100 mg, Part B 100 mg cohort, single oral 100 mg, Fed (high-fat meal), read-out: Cmax GM (%CV)): 0.536 µg/mL
- Vd/F (100 mg, Part B 100 mg cohort, single oral 100 mg, Fed (high-fat meal), read-out: Vz/F GM (% CV)): 212 L
- half-life (100 mg, Part B 100 mg cohort, single oral 100 mg, Fed (high-fat meal), read-out: t1/2 Mean (SD) (converted)): 26 h
- Tmax (100 mg, Part B 100 mg cohort, single oral 100 mg, Fed (high-fat meal), read-out: tmax Median (Min, Max)): 3.49 h
- AUC(0-t) (100 mg, healthy adults (Parts A,B), single oral 100 mg, fasted, read-out: AUC(0-24 h) GM): 5.73 µg·h/mL
- AUC(0-t) (100 mg, healthy adults (Parts A,B), single oral 100 mg, fasted, read-out: AUC(0-30 h) GM): 6.89 µg·h/mL
- AUC(0-t) (100 mg, healthy adults (Parts A,B), single oral 100 mg, fasted, read-out: AUC(0-72 h) GM): 11.9 µg·h/mL
- AUC(0-inf) (100 mg, healthy adults (Parts A,B), single oral 100 mg, fasted, read-out: AUC(0-inf) GM): 15 µg·h/mL
- AUC(0-t) (100 mg, healthy adults (Parts A,B), single oral 100 mg, fasted, read-out: AUC(0-t) GM): 14.8 µg·h/mL
- Cmax (100 mg, healthy adults (Parts A,B), single oral 100 mg, fasted, read-out: Cmax GM): 0.373 µg/mL
- Vd/F (100 mg, healthy adults (Parts A,B), single oral 100 mg, fasted, read-out: Vz/F GM): 268 L
- half-life (100 mg, healthy adults (Parts A,B), single oral 100 mg, fasted, read-out: t1/2 Mean (converted)): 28.6 h
- Tmax (100 mg, healthy adults (Parts A,B), single oral 100 mg, fasted, read-out: tmax Median): 2.99 h
- AUC(0-inf) (100 mg, healthy elderly subjects (Part C), single oral 100 mg, read-out: AUC (0-inf) GM (% CV)): 21.3 µg·h/mL
- Cmax (100 mg, healthy elderly subjects (Part C), single oral 100 mg, read-out: Cmax GM (% CV)): 0.543 µg/mL
- Vd/F (100 mg, healthy elderly subjects (Part C), single oral 100 mg, read-out: Vz/F GM (% CV)): 253 L
- half-life (100 mg, healthy elderly subjects (Part C), single oral 100 mg, read-out: t1/2 Mean (SD) (converted)): 38.1 h
- Tmax (100 mg, healthy elderly subjects (Part C), single oral 100 mg, read-out: tmax Median (Min, Max)): 2.6 h
- AUC(0-t) (200 mg, healthy adults (Parts A,B), single oral 200 mg, fasted, read-out: AUC(0-24 h) GM): 7.8 µg·h/mL
- AUC(0-t) (200 mg, healthy adults (Parts A,B), single oral 200 mg, fasted, read-out: AUC(0-30 h) GM): 9.44 µg·h/mL
- AUC(0-t) (200 mg, healthy adults (Parts A,B), single oral 200 mg, fasted, read-out: AUC(0-72 h) GM): 16.8 µg·h/mL
- AUC(0-inf) (200 mg, healthy adults (Parts A,B), single oral 200 mg, fasted, read-out: AUC(0-inf) GM): 22.4 µg·h/mL
- AUC(0-t) (200 mg, healthy adults (Parts A,B), single oral 200 mg, fasted, read-out: AUC(0-t) GM): 22 µg·h/mL
- Cmax (200 mg, healthy adults (Parts A,B), single oral 200 mg, fasted, read-out: Cmax GM): 0.539 µg/mL
- Vd/F (200 mg, healthy adults (Parts A,B), single oral 200 mg, fasted, read-out: Vz/F GM): 384 L
- half-life (200 mg, healthy adults (Parts A,B), single oral 200 mg, fasted, read-out: t1/2 Mean (converted)): 30.9 h
- Tmax (200 mg, healthy adults (Parts A,B), single oral 200 mg, fasted, read-out: tmax Median): 2 h
- AUC(0-inf) (400 mg, Japanese Subjects (Part D), single oral 400 mg, read-out: AUC(0-inf) GM): 46.5 µg·h/mL
- Cmax (400 mg, Japanese Subjects (Part D), single oral 400 mg, read-out: Cmax GM (% CV)): 1.18 µg/mL
- Vd/F (400 mg, Japanese Subjects (Part D), single oral 400 mg, read-out: Vz/F GM (% CV)): 364 L
- half-life (400 mg, Japanese Subjects (Part D), single oral 400 mg, read-out: t1/2 Mean (SD) (converted)): 30 h
- Tmax (400 mg, Japanese Subjects (Part D), single oral 400 mg, read-out: tmax Median): 2.25 h
